Test results from patent publication US12295997B2, “Prostate neoantigens and their uses” (Janssen Biotech, Inc., priority 2020, dated 2025).

B1: VPFRELKNQRTAQGAPGIHHAASPVAANLCDPARHAQHTRIPCGAGQVRAGRGPEAGGGVLQPQRPAPEKPGCPCRRGQPRLHTVKMWRA (peptide, listed as Homo sapiens)
chain: VPFRELKNQRTAQGAPGIHHAASPVAANLCDPARHAQHTRIPCGAGQVRAGRGPEAGGGVLQPQRPAPEKPGCPCRRGQPRLHTVKMWRA
notes: CPNE7 alternative splicing
B2: CHLFLQPQVGTPPPHTASARAPSGPPHPHESCPAGRRPARAAQTCARRQHGLPGCEEAGTARVPSLHLHLHQAALGAGRGRGWGEACAQVPPSRG (peptide, listed as Homo sapiens)
chain: CHLFLQPQVGTPPPHTASARAPSGPPHPHESCPAGRRPARAAQTCARRQHGLPGCEEAGTARVPSLHLHLHQAALGAGRGRGWGEACAQVPPSRG
notes: RECQL4 alternative splicing
B3: VPFRELKNVSVLEGLRQGRLGGPCSCHCPRPSQARLTPVDVAGPFLCLGDPGLFPPVKSSI (peptide, listed as Homo sapiens)
chain: VPFRELKNVSVLEGLRQGRLGGPCSCHCPRPSQARLTPVDVAGPFLCLGDPGLFPPVKSSI
notes: CPNE7 alternative splicing

System: CD8+ and CD4+ T cells (autologous CD3+ Pan-T cells isolated from human normal PBMCs)
Assay: Exogenous autologous normal donor restimulation assay (15-mer overlapping peptide pools on CD1c+ dendritic cells, TNFα/IFNγ flow cytometry)
Format: cell-based
Settings: 15-mer overlapping peptide pool; for Max. Fold Change over background CD4+ TNFαINFγ double positive DP / Max. Fold Change over background CD8+ TNFαINFγ double positive DP / Max. Frequency of CD4+ TNFαINFγ DP / Max. Frequency of CD8+ TNFαINFγ DP: Table 28, additional neoantigens, highest across normal donors; for Maximum Fold Change Over Background CD4+ cells / Maximum Fold Change Over Background CD8+ cells / Maximum Frequency of TNFα/IFNγ Double Positive CD4+ T cells / Maximum Frequency of TNFα/IFNγ Double Positive CD8+ T cells: Table 25; for Maximum Fold Change Over Background CD4+ cells: TNFα+IFNγ+ CD4+ T cells; for Maximum Fold Change Over Background CD4+ cells / Maximum Fold Change Over Background CD8+ cells: highest fold change over negative control across normal donors; for Maximum Fold Change Over Background CD8+ cells: TNFα+IFNγ+ CD8+ T cells; for Maximum Frequency of TNFα/IFNγ Double Positive CD4+ T cells / Maximum Frequency of TNFα/IFNγ Double Positive CD8+ T cells: highest frequency across normal donors
Experimental: CD1c+ Dendritic Cells (DC) isolated from human normal PBMCs were thawed using media (IMDM (Gibco) supplemented with glutamine, HEPES, 5% human serum (Sigma), and 1× Pen-Strep). DC cells were resuspended in media supplemented with IL-4 (Peprotech, 80 ng/mL) and GM-CSF (Gibco, 80 ng/mL), plated in 6 well microplates, and rested overnight at 37° C. (5% CO2). The following day, DC cells were counted and plated in a 96 well round bottom microplate at a concentration of 30,000 viable cells per well. Lyophilized peptides (15-mer overlapping peptides) were solubilized in 100% DMSO and pooled by neoantigen to between 5 mg/mL and 20 mg/mL. Neoantigen peptides pools were added to DCs for a final concentration of […] and rested for 2 hours at 37° C. (5% CO2). CEF Peptide Pool “Plus” (Cellular Technologies, Ltd.) was utilized as a positive control and DMSO at the same final concentration as the experimental peptides was utilized as a negative control. After 2 hours, DC cells were irradiated with 50 gray of ionizing radiation. Autologous CD3+ Pan-T cells isolated from human normal PBMCs were thawed using media. Following irradiation, autologous Pan-T cells were added to the irradiated DCs at 300,000 viable cells per well. Human IL-15 (Peprotech) was added to all wells at final concentration of 10 ng/mL.
Plates were incubated at 37° C. (5% CO2) for a total of 12 days. Media was refreshed every 2-3 days with IL-15 (10 ng/mL final concentration) and IL-2 (R&D systems, 10 IU/mL final concentration). On day 11 cells were re-stimulated with identical experimental peptide pools or controls, at same concentration as peptide stimulation on Day 1. Protein Inhibitor Cocktail (eBioscience) was added to every well and plate was incubated overnight at 37° C. (5% CO2).
On day 12, cells were stained for intracellular flow cytometry analysis. The cells were washed with PBS and stained with Live/Dead Fixable Aqua Dead Cell stain (Thermo-Fisher). Following the live/dead stain, cells were blocked using Biotin-Free Fc Receptor Blocker (Accurate Chemical & Scientific Corp). Extracellular cellular flow panel (1 μL/antibody per well in 50 μL) consisted of CD3 PerCP-Cy5.5 (Biolegend), CD4 BV421 (Biolegend), and CD8 APC-Cy7 (Biolegend). After extracellular staining, cells were fixed using Foxp3/fTranscription Factor Staining Buffer Set (eBioscience) and stained for intracellular proteins (1:50 dilution) using TNFα FITC (R&D Systems) and IFNγ BV785 (Biolegend). Cells were washed and resuspended in stain buffer and analyzed using a BD Celesta flow cytometer.
Flow cytometry cell staining analysis was completed using FlowJo v10. Cells were gated on live, singlet, CD3+ cells. The CD8+ and CD4+ T cells were analyzed for TNFα/IFNγ expression and the frequency of double positive TNFα/IFNγ CD8+ and the frequency of double positive TNFα/IFNγ CD4+ T cells were recorded. Responses were assessed to be positive when the frequency of double positive TNFα/IFNγ CD8+ or TNFα/IFNγ CD4+ T cells due to stimulation with an experimental peptide pool was increased greater than or equal to 3-fold over the DMSO only negative control for that donor and at least 0.01%.
(§1) Overlapping 15-mer peptides were designed to span each neoantigen incorporated into NeoGAd20 and NeoMVA to assess their ability to activate T cells using the exogenous autologous normal donor restimulation assay described in Example 1 as pools using TNFα and IFNγ production by CD8^+ and CD4^+ T cells as a readout.
as §1, with “Immunogenicity of various additional identified neoantigens was assessed. Overlapping” for “Overlapping”, “similarly to what was done in Example 11” for “incorporated into NeoGAd20 and NeoMVA”

Row | Molecule | Max. Fold Change over background CD4+ TNFαINFγ double positive DP | Max. Fold Change over background CD8+ TNFαINFγ double positive DP | Max. Frequency of CD4+ TNFαINFγ DP | Max. Frequency of CD8+ TNFαINFγ DP | Maximum Fold Change Over Background CD4+ cells | Maximum Fold Change Over Background CD8+ cells | Maximum Frequency of TNFα/IFNγ Double Positive CD4+ T cells | Maximum Frequency of TNFα/IFNγ Double Positive CD8+ T cells
1 | P37 (MAGGVLRRLLCREPDRDGDKGASREETVVPLHIGDPVVLPGIGQCYSALF; listed as Homo sapiens) [Neoantigen P37] | 22.78 | 2.05 | 0.09 | 0.13 | – | – | – | –
2 | ANLKGTLQVRSGQAVSPR (listed as Homo sapiens) [AS21, RECQL4 alternative splicing] | 1.7 | 3.81 | 0.07 | 0.12 | – | – | – | –
3 | TGGKSTCSAPGPQSLPSTPFSTYPQWVILITEL (listed as Homo sapiens) [AS57, KLK3 alternative splicing] | – | – | – | – | 11.00 | 4.67 | 0.110 | 0.056
4 | FVQGKDWGVKKFIRRDF (listed as Homo sapiens) [Neoantigen M12, SPOP F133V] | – | – | – | – | 8.94 | 6.67 | 0.05 | 0.12
5 | CEERGAAGSLISCE (listed as Homo sapiens) [FUS6, TMPRSS2->ERG gene fusion] | – | – | – | – | 2.27 | 3.50 | 0.016 | 0.056
6 | TEYNQKLQVNQFSESK (listed as Homo sapiens) [FUS2, ARHGEF38->ARHGEF38-IT1 gene fusion] | – | – | – | – | 2.14 | 3.13 | 0.03 | 0.05
7 | FKKFDGPCGERGGGRTARALWARGDSVLTPALDPQTPVRAPSLTRAAAAV (listed as Homo sapiens) [AS47, AGRN alternative splicing] | – | – | – | – | 2.58 | 4.80 | 0.031 | 0.240
8 | DYWAQKEKISIPRTHLC (listed as Homo sapiens) [AS6, ACSM1 alternative splicing] | – | – | – | – | 31.67 | 6.50 | 0.380 | 0.078
9 | FMIGELVGELCCQLTFRLPFLESLCQAVVTQALRFNPSFQEVCIYQDTDLM (listed as Homo sapiens) [AS2, SLC30A4 alternative splicing] | 110.68 | 5.06 | 0.86 | 0.09 | – | – | – | –
10 | LTFLDFIQVTLRVMSGSQMENGSSYFFKPFSWGLGVGLSAWLCVMLT (listed as Homo sapiens) [AS1, ABCC4 alternative splicing] | 3.57 | 8.15 | 0.02 | 0.11 | – | – | – | –
11 | WCPLDLRLGSTGCLTCRHHQTSHE (listed as Homo sapiens) [AS4, NCAPD3 alternative splicing] | 37.38 | 5.4 | 1.43 | 0.17 | – | – | – | –
12 | VLRFLDLKVRYLHS (listed as Homo sapiens) [AS15, LRRC45 alternative splicing] | – | – | – | – | 9.17 | 4.36 | 0.110 | 0.061
13 | QPDSFAALHSSLNELGE (listed as Homo sapiens) [Neoantigen M86, AR L702H] | – | – | – | – | 6.18 | 4.22 | 0.05 | 0.08
14 | EAFQRAAGEGGPGRGGARRGARVLQSPFCRAGAGEWLGHQSLR (listed as Homo sapiens) [AS41, RHPN1 alternative splicing] | – | – | – | – | 2.20 | 190.60 | 0.022 | 9.530
15 | RTALTHNQDFSIYRLCCKRGSLCHASQARSPAFPKPVRPLPAPITRITPQLGGQSDSSQPLLTTGRPQGWQDQALRHTQQASPASCATITIPIHSAALGDHSGDPGPAWDTCPPLPLTTLIPRAPPPYGDSTARSWPSRCGPLG [MS3] | – | – | – | – | 13.61 | 36.15 | 0.09 | 0.47
16 | NSKMALNSEALSVVSE (listed as Homo sapiens) [FUS5, TMPRSS2->ERG gene fusion] | – | – | – | – | 3.43 | 32.50 | 0.048 | 0.390
17 | DGHSYTSKVNCLLLQDGFHGCVSITGAAGRRNLSIFLFLMLCKLEFHA (listed as Homo sapiens) [AS55.1, SPOCK1 alternative splicing] | 20.66 | 25.26 | 0.08 | 1.47 | – | – | – | –
18 | B1 | – | – | – | – | 2.98 | 5.11 | 0.03 | 0.07
19 | B2 | – | – | – | – | 7.51 | 19.47 | 0.04 | 0.74
20 | B3 | – | – | – | – | 5.67 | 28.75 | 0.040 | 0.460
